Source: patent US6624288B1 (priority 1997, dated 2003)

Test system: Isolated medial neurons from Aplysia oculifera pleuropedal ganglia
Type: cell-based

NC1=N[C@H](O)[C@H]2[C@H]3O[C@]4(O)O[C@@H]([C@@H](O)[C@@]2(N1)[C@@H]4O)[C@]3(O)CO [tetrodotoxin]
effect on TxI-induced spike prolongation: reduced the TxI-induced spike prolongation
